From patent US4138554A, “7-[D-α-(4-Hydroxy-1,5-naphthyridine-3-carboxamido)-α-phenyl (and p-hydroxyphenyl)acetamido]-3-carbamoyloxymethyl-3-cephem-4-carboxylic acids” (priority 1977, dated 1979)
Converted amounts (≈) assume the structure as drawn. Like-named read-outs stand apart in the source and are kept apart here.

Tested on: Pseudomonas aeruginosa
Test: MIC by agar dilution against 61 strains of Pseudomonas aeruginosa, secondary evaluation
Assay type: cell-based
Conditions: for MIC: Pseudomonas aeruginosa, read-out: MIC
Procedure: Minimum inhibitory concentrations (MIC) of BB-S520 were determined by serial two-fold agar dilution method using Steers' apparatus on Meuller-Hinton agar plate against 31 test organisms for the primary screening and also against 61 strains of Pseudomonas aeruginosa for the secondary evaluation. The results are shown in Table 1 and Table 2 along with those of BB-S514 and sulbenicillin.
Minimum inhibitory concentrations (MIC) of cephalosporins in the present study were determined by serial two-fold agar dilution method using Steers' apparatus on Mueller-Hinton agar plate against 31 test organisms for the primary screening and also against 61 strains of Pseudomonas aeruginosa for the secondary evaluation.

Question: Which “Mean % Relative Activity (Sulbenicillin = 100%)” value (Ps. aeruginosa (61 strains), from geometric means of MICs in Table 2) does the source give for `CC(=O)OCC1=C(C(=O)O)N2C(=O)C(NC(=O)C(NC(=O)c3cnc4cccnc4c3O)c3ccccc3)C2SC1` (centres unmarked) [BB-S514] here?
Answer: 480%

Question: And the MIC (BBRI Pa-No. 1, D15, Table 2)?
Answer: 6.3 µg/mL (≈ 10.9 µM)

Question: And the MIC (BBRI Pa-No. 2, VA, Table 2)?
Answer: 6.3 µg/mL (≈ 10.9 µM)

Question: And the MIC (BBRI Pa-No. 3, 1449VA, Table 2)?
Answer: 3.1 µg/mL (≈ 5.37 µM)

Question: And the MIC (BBRI Pa-No. 4, H9 D113, Table 2)?
Answer: 12.5 µg/mL (≈ 21.6 µM)

Question: And the MIC (BBRI Pa-No. 5, M4865KC, Table 2)?
Answer: 6.3 µg/mL (≈ 10.9 µM)

Question: And the MIC (BBRI Pa-No. 6, No. 5, Table 2)?
Answer: 25 µg/mL (≈ 43.3 µM)

Question: And the MIC (BBRI Pa-No. 7, Table 2)?
Answer: 12.5 µg/mL (≈ 21.6 µM)

Question: What about the MIC (BBRI Pa-No. 8, Table 2) of the same compound?
Answer: 6.3 µg/mL (≈ 10.9 µM)

Question: And the MIC (BBRI Pa-No. 9, Yale, Table 2)?
Answer: 6.3 µg/mL (≈ 10.9 µM)

Question: And the MIC (BBRI Pa-No. 10, Table 2)?
Answer: 50 µg/mL (≈ 86.6 µM)

Question: What about the MIC (BBRI Pa-No. 11, Table 2) of the same compound?
Answer: 6.3 µg/mL (≈ 10.9 µM)

Question: And the MIC (BBRI Pa-No. 12, Table 2)?
Answer: 6.3 µg/mL (≈ 10.9 µM)

Question: And the MIC (BBRI Pa-No. 14, Table 2)?
Answer: 6.3 µg/mL (≈ 10.9 µM)

Question: What about the MIC (BBRI Pa-No. 15, Table 2) of the same compound?
Answer: 12.5 µg/mL (≈ 21.6 µM)

Question: And the MIC (BBRI Pa-No. 16, No. 130, Table 2)?
Answer: 1.6 µg/mL (≈ 2.77 µM)

Question: What about the MIC (BBRI Pa-No. 17, H6 D114, Table 2) of the same compound?
Answer: 3.1 µg/mL (≈ 5.37 µM)

Question: What about the MIC (BBRI Pa-No. 18, H8 D121, Table 2) of the same compound?
Answer: 6.3 µg/mL (≈ 10.9 µM)

Question: And the MIC (BBRI Pa-No. 19, Table 2)?
Answer: 3.1 µg/mL (≈ 5.37 µM)

Question: And the MIC (BBRI Pa-No. 20, Table 2)?
Answer: 6.3 µg/mL (≈ 10.9 µM)

Question: What about the MIC (BBRI Pa-No. 21, Table 2) of the same compound?
Answer: 6.3 µg/mL (≈ 10.9 µM)

Question: What about the MIC (BBRI Pa-No. 23, Table 2) of the same compound?
Answer: 6.3 µg/mL (≈ 10.9 µM)

Question: And the MIC (BBRI Pa-No. 24, Table 2)?
Answer: 50 µg/mL (≈ 86.6 µM)

Question: And the MIC (BBRI Pa-No. 25, Table 2)?
Answer: 1.6 µg/mL (≈ 2.77 µM)

Question: And the MIC (BBRI Pa-No. 26, Ps32, Table 2)?
Answer: 3.1 µg/mL (≈ 5.37 µM)

Question: And the MIC (BBRI Pa-No. 28, CPH10527/72, Table 2)?
Answer: 6.3 µg/mL (≈ 10.9 µM)

Question: What about the MIC (BBRI Pa-No. 29, D122, Table 2) of the same compound?
Answer: 3.1 µg/mL (≈ 5.37 µM)

Question: What about the MIC (BBRI Pa-No. 30, Table 2) of the same compound?
Answer: 6.3 µg/mL (≈ 10.9 µM)

Question: What about the MIC (BBRI Pa-No. 31, Table 2) of the same compound?
Answer: 1.6 µg/mL (≈ 2.77 µM)

Question: And the MIC (BBRI Pa-No. 32, Table 2)?
Answer: 6.3 µg/mL (≈ 10.9 µM)

Question: What about the MIC (BBRI Pa-No. 33, Table 2) of the same compound?
Answer: 25 µg/mL (≈ 43.3 µM)

Question: And the MIC (BBRI Pa-No. 34, Table 2)?
Answer: 6.3 µg/mL (≈ 10.9 µM)

Question: What about the MIC (BBRI Pa-No. 35, Table 2) of the same compound?
Answer: 25 µg/mL (≈ 43.3 µM)

Question: What about the MIC (BBRI Pa-No. 36, Table 2) of the same compound?
Answer: 0.4 µg/mL (≈ 0.693 µM)

Question: And the MIC (BBRI Pa-No. 37, Table 2)?
Answer: 6.3 µg/mL (≈ 10.9 µM)

Question: And the MIC (BBRI Pa-No. 38, Table 2)?
Answer: 12.5 µg/mL (≈ 21.6 µM)

Question: And the MIC (BBRI Pa-No. 39, Table 2)?
Answer: 3.1 µg/mL (≈ 5.37 µM)

Question: What about the MIC (BBRI Pa-No. 41, Table 2) of the same compound?
Answer: 6.3 µg/mL (≈ 10.9 µM)

Question: What about the MIC (BBRI Pa-No. 42, Table 2) of the same compound?
Answer: 12.5 µg/mL (≈ 21.6 µM)

Question: What about the MIC (BBRI Pa-No. 43, Table 2) of the same compound?
Answer: 6.3 µg/mL (≈ 10.9 µM)

Question: What about the MIC (BBRI Pa-No. 44, Table 2) of the same compound?
Answer: 6.3 µg/mL (≈ 10.9 µM)

Question: What about the MIC (BBRI Pa-No. 51, Table 2) of the same compound?
Answer: 6.3 µg/mL (≈ 10.9 µM)

Question: What about the MIC (BBRI Pa-No. 52, Table 2) of the same compound?
Answer: 6.3 µg/mL (≈ 10.9 µM)

Question: What about the MIC (BBRI Pa-No. 53, Table 2) of the same compound?
Answer: 6.3 µg/mL (≈ 10.9 µM)

Question: And the MIC (BBRI Pa-No. 54, Table 2)?
Answer: 6.3 µg/mL (≈ 10.9 µM)

Question: What about the MIC (BBRI Pa-No. 55, Table 2) of the same compound?
Answer: 6.3 µg/mL (≈ 10.9 µM)

Question: What about the MIC (BBRI Pa-No. 56, Table 2) of the same compound?
Answer: 6.3 µg/mL (≈ 10.9 µM)

Question: What about the MIC (BBRI Pa-No. 57, Table 2) of the same compound?
Answer: 3.1 µg/mL (≈ 5.37 µM)

Question: And the MIC (BBRI Pa-No. 58, Table 2)?
Answer: 12.5 µg/mL (≈ 21.6 µM)

Question: What about the MIC (BBRI Pa-No. 59, Table 2) of the same compound?
Answer: 6.3 µg/mL (≈ 10.9 µM)

Question: And the MIC (BBRI Pa-No. 60, Table 2)?
Answer: 3.1 µg/mL (≈ 5.37 µM)

Question: And the MIC (BBRI Pa-No. 61, Table 2)?
Answer: 6.3 µg/mL (≈ 10.9 µM)

Question: What about the MIC (BBRI Pa-No. 62, Table 2) of the same compound?
Answer: 12.5 µg/mL (≈ 21.6 µM)

Question: And the MIC (BBRI Pa-No. 64, Table 2)?
Answer: 6.3 µg/mL (≈ 10.9 µM)

Question: What about the MIC (BBRI Pa-No. 65, Table 2) of the same compound?
Answer: 3.1 µg/mL (≈ 5.37 µM)

Question: What about the MIC (BBRI Pa-No. 66, Table 2) of the same compound?
Answer: 3.1 µg/mL (≈ 5.37 µM)

Question: And the MIC (BBRI Pa-No. 67, Table 2)?
Answer: 12.5 µg/mL (≈ 21.6 µM)

Question: What about the MIC (BBRI Pa-No. 68, Table 2) of the same compound?
Answer: 12.5 µg/mL (≈ 21.6 µM)

Question: And the MIC (BBRI Pa-No. 69, Table 2)?
Answer: 25 µg/mL (≈ 43.3 µM)

Question: What about the MIC (BBRI Pa-No. 70, K-Ps102 (CR-102), Table 2) of the same compound?
Answer: 6.3 µg/mL (≈ 10.9 µM)

Question: What about the MIC (GN315, BBRI Pa-No. 27, GN315, Table 2) of the same compound?
Answer: 6.3 µg/mL (≈ 10.9 µM)

Question: And the MIC (GN4925, BBRI Pa-No. 45, GN4925, Table 2)?
Answer: 12.5 µg/mL (≈ 21.6 µM)
